Assay results published in patent US20230102554A1 (GB002, INC., priority 2019, published 2023).

What was measured:
[1] = target: T1, Human PDGFRα, cytoplasmic domain (GST-PDGFRα) (Homo sapiens, UniProt P16234); assay: Human PDGFRα biochemical inhibition assay (off-chip Mobility Shift Assay)
T1 construct: made in house

[2] = target: T2, Human PDGFRβ, cytoplasmic domain (GST-PDGFRβ) (Homo sapiens, UniProt P09619); assay: Human PDGFRβ biochemical inhibition assay (off-chip Mobility Shift Assay)
T2 construct: made in house
T2 sequence (P09619 with tags, fused parts or gaps): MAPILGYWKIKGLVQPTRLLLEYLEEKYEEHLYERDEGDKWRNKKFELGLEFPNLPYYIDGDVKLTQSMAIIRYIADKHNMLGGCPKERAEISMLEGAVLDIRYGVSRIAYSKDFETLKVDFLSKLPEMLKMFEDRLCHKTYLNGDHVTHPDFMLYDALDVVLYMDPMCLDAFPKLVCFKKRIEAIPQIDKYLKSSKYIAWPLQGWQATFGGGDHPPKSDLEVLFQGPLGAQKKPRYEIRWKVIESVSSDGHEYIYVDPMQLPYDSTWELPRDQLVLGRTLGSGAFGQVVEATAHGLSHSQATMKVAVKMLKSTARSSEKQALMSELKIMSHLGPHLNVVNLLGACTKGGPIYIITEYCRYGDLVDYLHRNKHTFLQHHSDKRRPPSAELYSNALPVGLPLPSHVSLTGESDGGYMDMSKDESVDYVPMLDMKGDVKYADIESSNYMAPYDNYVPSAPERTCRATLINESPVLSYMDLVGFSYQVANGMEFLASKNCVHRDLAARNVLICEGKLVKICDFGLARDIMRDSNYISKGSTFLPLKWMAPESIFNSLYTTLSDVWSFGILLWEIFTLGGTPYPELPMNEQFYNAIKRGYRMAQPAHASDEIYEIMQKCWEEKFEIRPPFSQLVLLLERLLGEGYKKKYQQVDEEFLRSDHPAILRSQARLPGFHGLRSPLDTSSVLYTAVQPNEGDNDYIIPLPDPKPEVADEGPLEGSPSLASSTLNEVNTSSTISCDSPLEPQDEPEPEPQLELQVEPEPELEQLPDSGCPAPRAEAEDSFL
Procedure, shortened: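 GST-tagged cytoplasmic domain (aa 557-1106) from baculovirus was incubated 1 h at room temperature with compound, CSKtide, ATP at Km and Mg²⁺ in HEPES buffer, pH 7.5. Phosphorylated and unphosphorylated peptide were separated by off-chip mobility shift, and the product ratio P/(P+S) gave percent inhibition.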

T1 sequence (P16234 550-1089 T674I): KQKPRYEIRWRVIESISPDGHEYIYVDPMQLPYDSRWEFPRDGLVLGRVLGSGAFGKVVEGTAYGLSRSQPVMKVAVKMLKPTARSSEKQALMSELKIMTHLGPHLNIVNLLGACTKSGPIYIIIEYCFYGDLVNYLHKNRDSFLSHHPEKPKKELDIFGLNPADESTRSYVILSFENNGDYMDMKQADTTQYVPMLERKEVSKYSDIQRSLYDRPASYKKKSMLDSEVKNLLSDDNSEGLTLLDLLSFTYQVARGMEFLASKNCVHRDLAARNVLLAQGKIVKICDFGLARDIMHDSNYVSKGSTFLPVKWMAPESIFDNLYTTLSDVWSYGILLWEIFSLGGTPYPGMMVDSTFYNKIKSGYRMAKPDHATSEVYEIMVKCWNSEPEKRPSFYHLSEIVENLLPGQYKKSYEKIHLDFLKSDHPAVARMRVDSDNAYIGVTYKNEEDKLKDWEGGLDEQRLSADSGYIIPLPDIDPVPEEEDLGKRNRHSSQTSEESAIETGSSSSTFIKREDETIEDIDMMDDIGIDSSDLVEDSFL

Row | Compound | IC50 [1] | IC50 [2]
1 | CCn1cc2ncc(N[C@@H](C)c3cccc(NC(=O)c4ccc(N5CCN(C)CC5)c(F)c4)c3)nc2n1 [Compound 367, (S)-N-(3-(1-((2-ethyl-2H-pyrazolo[3,4-b]pyrazin-6-yl)amino)ethyl)phenyl)-3-fluoro-4-(4-methylpiperazin-1-yl) benzamide] | 300 to 1000 nM | ≥ 1000 nM
2 | CCn1cc2ncc(N[C@@H](C)c3cccc(NC(=O)c4ccc(N5CCOCC5)nc4)c3)nc2n1 [Compound 372, (S)-N-(3-(1-((2-ethyl-2H-pyrazolo[3,4-b]pyrazin-6-yl)amino)ethyl)phenyl)-6-morpholinonicotinamide] | 300 to 1000 nM | ≥ 1000 nM
3 | CCn1cc2ncc(N[C@@H](C)c3cccc(NC(=O)c4ccc(CN(C)C)cc4)c3)nc2n1 [Compound 373, (S)-4-((dimethylamino)methyl)-N-(3-(1-((2-ethyl-2H-pyrazolo[3,4-b]pyrazin-6-yl)amino)ethyl)phenyl)benzamide] | < 300 nM | ≥ 1000 nM
4 | CCn1cc2ncc(N[C@@H](C)c3cccc(NC(=O)c4ccc(CN5CCOCC5)cc4)c3)nc2n1 [Compound 374, (S)-N-(3-(1-((2-ethyl-2H-pyrazolo[3,4-b]pyrazin-6-yl)amino)ethyl)phenyl)-4-(morpholinomethyl)benzamide] | 300 to 1000 nM | 300 to 1000 nM
5 | CCn1cc2ncc(N[C@@H](C)c3cccc(NC(=O)c4ccc(CN5CCN(C)CC5)cc4)c3)nc2n1 [Compound 376, (S)-N-(3-(1-((2-ethyl-2H-pyrazolo[3,4-b]pyrazin-6-yl)amino)ethyl)phenyl)-4-((4-methylpiperazin-1-yl)methyl) benzamide] | < 300 nM | < 300 nM
6 | CCn1cc2ncc(N[C@@H](C)c3cccc(NC(=O)c4ccc(N5CCN(C(=O)OC(C)(C)C)CC5)nc4)c3)nc2n1 [Compound 378, tert-butyl (S)-4-(5-((3-(1-((2-ethyl-2H-pyrazolo[3,4-b]pyrazin-6-yl)amino)ethyl)phenyl)carbamoyl)pyridin-2-yl) piperazine-1-carboxylate] | < 300 nM | 300 to 1000 nM
7 | CCn1cc2ncc(N[C@@H](C)c3cc(NC(=O)c4cnc(NC)c(C)c4)ccc3F)nc2n1 [Compound 379, (S)-N-(3-(1-((2-ethyl-2H-pyrazolo[3,4-b]pyrazin-6-yl)amino)ethyl)-4-fluorophenyl)-5-methyl-6-(methylamino) nicotinamide] | < 300 nM | 300 to 1000 nM
8 | CCn1cc2ncc(N[C@@H](C)c3cccc(NC(=O)c4ccc(N5CCOCC5)c(C)c4)c3)nc2n1 [Compound 386, (S)-N-(3-(1-((2-ethyl-2H-pvrazolo[3,4-b]pyrazin-6-yl)amino)ethyl)phenyl)-3-methyl-4-morpholinobenzamide] | < 300 nM | < 300 nM
9 | CCn1cc2ncc(N[C@@H](C)c3cccc(NC(=O)c4ccc(CN5CCN(C)CC5)nc4)c3)nc2n1 [Compound 387, (S)-N-(3-(1-((2-ethyl-2H-pyrazolo[3,4-b]pyrazin-6-yl)amino)ethyl)phenyl)-6-((4-methylpiperazin-1-yl)methyl) nicotinamide] | < 300 nM | ≥ 1000 nM
10 | CCn1cc2ncc(N[C@@H](C)c3cccc(NC(=O)c4ccc(CN5CCCC5)nc4)c3)nc2n1 [Compound 388, (S)-N-(3-(1-((2-ethyl-2H-pyrazolo[3,4-b]pyrazin-6-yl)amino)ethyl)phenyl)-6-(pyrrolidin-1-ylmethyl) nicotinamide] | ≥ 1000 nM | ≥ 1000 nM
11 | CCn1cc2ncc(N[C@@H](C)c3cccc(NC(=O)c4ccc(N5CCCC5)c(Cl)c4)c3)nc2n1 [Compound 389, (S)-3-chloro-N-(3-(1-((2-ethyl-2H-pyrazolo[3,4-b]pyrazin-6-yl)amino)ethyl)phenyl)-4-(pyrrolidin-1-yl)benzamide] | < 300 nM | < 300 nM

Now from value to molecule:

Row | IC50 [1] | IC50 [2] | Compound
12 | ≥ 1000 nM | ≥ 1000 nM | CCn1cc2ncc(N[C@@H](C)c3cccc(NC(=O)c4ccoc4)c3)nc2n1 [Compound 368, (S)-N-(3-(1-((2-ethyl-2H-pyrazolo[3,4-b]pyrazin-6-yl)amino)ethyl)phenyl)furan-3-carboxamide]
13 | ≥ 1000 nM | ≥ 1000 nM | CCn1cc2ncc(N[C@@H](C)c3cccc(NC(=O)c4ccc(C)o4)c3)nc2n1 [Compound 369, (S)-N-(3-(1-((2-ethyl-2H-pyrazolo[3,4-b]pyrazin-6-yl)amino)ethyl)phenyl)-5-methylfuran-2-carboxamide]
14 | 300 to 1000 nM | ≥ 1000 nM | CCn1cc2ncc(N[C@@H](C)c3cccc(NC(=O)c4cnc(NC(C)=O)s4)c3)nc2n1 [Compound 370, (S)-2-acetamido-N-(3-(1-((2-ethyl-2H-pyrazolo[3,4-b]pyrazin-6-yl)amino)ethyl)phenyl)thiazole-5-carboxamide]
15 | < 300 nM | 300 to 1000 nM | CCn1cc2ncc(N[C@@H](C)c3cccc(NC(=O)c4cnc(NC(C)C)c(C)c4)c3)nc2n1 [Compound 371, (S)-N-(3-(1-((2-ethyl-2H-pyrazolo[3,4-b]pyrazin-6-yl)amino)ethyl)phenyl)-6-(isopropylamino)-5-methylnicotinamide]
16 | < 300 nM | 300 to 1000 nM | CCn1cc2ncc(N[C@@H](C)c3cccc(NC(=O)c4ccc(N5CCCC5)nc4)c3)nc2n1 [Compound 375, (S)-N-(3-(1-((2-ethyl-2H-pyrazolo[3,4-b]pyrazin-6-yl)amino)ethyl)phenyl)-6-(pyrrolidin-1-yl)nicotinamide]
17 | 300 to 1000 nM | 300 to 1000 nM | CCn1cc2ncc(N[C@@H](C)c3cccc(NC(=O)c4ccc(N(C)C)nc4)c3)nc2n1 [Compound 377, (S)-6-(dimethylamino)-N-(3-(1-((2-ethyl-2H-pyrazolo[3,4-b]pyrazin-6-yl)amino)ethyl)phenyl)nicotinamide]
18 | < 300 nM | 300 to 1000 nM | CCn1cc2ncc(N[C@@H](C)c3cccc(NC(=O)c4cnc(NC)c(C)c4)c3)nc2n1 [Compound 380, (S)-N-(3-(1-((2-ethyl-2H-pyrazolo[3,4-b]pyrazin-6-yl)amino)ethyl)phenyl)-5-methyl-6-(methylamino)nicotinamide]
19 | < 300 nM | 300 to 1000 nM | CCn1cc2ncc(N[C@@H](C)c3cccc(NC(=O)c4cnc(C(C)O)s4)c3)nc2n1 (stereo partly drawn) [Compound 381, N-(3-((S)-1-((2-ethyl-2H-pyrazolo[3,4-b]pyrazin-6-yl)amino)ethyl)phenyl)-2-(1-hydroxyethyl)thiazole-5-carboxamide]
20 | < 300 nM | < 300 nM | CCn1cc2ncc(N[C@@H](C)c3cccc(NC(=O)c4cnc(Cl)c(C)c4)c3)nc2n1 [Compound 383, (S)-6-chloro-N-(3-(1-((2-ethyl-2H-pyrazolo[3,4-b]pyrazin-6-yl)amino)ethyl)phenyl)-5-methylnicotinamide]
21 | < 300 nM | < 300 nM | CCn1cc2ncc(N[C@@H](C)c3cccc(NC(=O)c4ccc(N(C)C)c(C)c4)c3)nc2n1 [Compound 384, (S)-4-(dimethylamino)-N-(3-(1-((2-ethyl-2H-pyrazolo[3,4-b]pyrazin-6-yl)amino)ethyl)phenyl)-3-methylbenzamide]
22 | < 300 nM | 300 to 1000 nM | CCn1cc2ncc(N[C@@H](C)c3cccc(NC(=O)c4ccc(NC5CC5)nc4)c3)nc2n1 [Compound 385, (S)-6-(cyclopropylamino)-N-(3-(1-((2-ethyl-2H-pyrazolo[3,4-b]pyrazin-6-yl)amino)ethyl)phenyl)nicotinamide]
